Source: ChEMBL document CHEMBL1201862, “PubChem BioAssay data set” (2004)
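In this assay, cells in 96-well plates receive the compound at five concentrations for 48 hours. Endpoints are linearly interpolated between the surrounding concentrations. GI50: concentration for 50% inhibition of growth.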 The source made the active and inactive calls. Rule as the data show it: active = GI50 up to about 1.1 µM and inactive = higher.

Tests used:
Assay in all cases: NCI-60 cell line screen, 48 h
A549 = tested on: A549
CCRF-CEM = tested on: CCRF-CEM
HL-60 = tested on: HL-60
HOP-92 = tested on: HOP-92
HT-29 = tested on: HT-29
IGROV-1 = tested on: IGROV-1
KM12 = tested on: KM12
MCF7 = tested on: MCF7
MDA-MB-231 = tested on: MDA-MB-231
NCI-H226 = tested on: NCI-H226
NCI-H460 = tested on: NCI-H460
OVCAR-4 = tested on: OVCAR-4
SF-268 = tested on: SF-268
SF-539 = tested on: SF-539
SK-MEL-28 = tested on: SK-MEL-28
SK-OV-3 = tested on: SK-OV-3
SR = tested on: SR
SW-620 = tested on: SW-620
T47D = tested on: T47D
UACC-257 = tested on: UACC-257

Row | Compound | GI50 (A549) | GI50 (CCRF-CEM) | GI50 (HL-60) | GI50 (HOP-92) | GI50 (HT-29) | GI50 (IGROV-1) | GI50 (KM12) | GI50 (MCF7) | GI50 (MDA-MB-231) | GI50 (NCI-H226) | GI50 (NCI-H460) | GI50 (OVCAR-4) | GI50 (SF-268) | GI50 (SF-539) | GI50 (SK-MEL-28) | GI50 (SK-OV-3) | GI50 (SR) | GI50 (SW-620) | GI50 (T47D) | GI50 (UACC-257)
1 | N#CC(NNC(=O)Cc1ccccc1)c1ccccc1O (stereo not given) | 10.3 µM (inactive) | 4 µM (inactive) | 3.35 µM (inactive) | 23.3 µM (inactive) | 9.18 µM (inactive) | 21.2 µM (inactive) | 11.6 µM (inactive) | 10.2 µM (inactive) | 8.2 µM (inactive) | 17.3 µM (inactive) | 6.84 µM (inactive) | 11.8 µM (inactive) | 9.04 µM (inactive) | 16.4 µM (inactive) | 26.2 µM (inactive) | 14.5 µM (inactive) | 7.29 µM (inactive) | 10.2 µM (inactive) | 2.62 µM (inactive) | 14 µM (inactive)
2 | Cc1cc(=O)oc2c(CNC(Cc3ccccc3)C(=O)O)c(O)ccc12 (stereo not given) | > 100 µM (inactive) | > 100 µM (inactive) | > 100 µM (inactive) | > 100 µM (inactive) | > 100 µM (inactive) | > 100 µM (inactive) | > 100 µM (inactive) | > 100 µM (inactive) | > 100 µM (inactive) | > 100 µM (inactive) | > 100 µM (inactive) | > 100 µM (inactive) | > 100 µM (inactive) | > 100 µM (inactive) | > 100 µM (inactive) | > 100 µM (inactive) | > 100 µM (inactive) | > 100 µM (inactive) | > 100 µM (inactive) | > 100 µM (inactive)
3 | CC1CC[C@@]2(OC1)OC1C[C@H]3[C@@H]4CCC5CC(O)CC[C@]5(C)[C@H]4C/C(=N\N(C)C)[C@]3(C)C1[C@@H]2C (stereo not given in full) | 35.3 µM (inactive) | 37.8 µM (inactive) | 22.2 µM (inactive) | 52.8 µM (inactive) | 19.6 µM (inactive) | 28.7 µM (inactive) | 25.5 µM (inactive) | 34.9 µM (inactive) | 19.2 µM (inactive) | 34.2 µM (inactive) | 30.5 µM (inactive) | 38.3 µM (inactive) | 31.1 µM (inactive) | 23.8 µM (inactive) | 43.7 µM (inactive) | 18.7 µM (inactive) | 13.8 µM (inactive) | 40.3 µM (inactive) | 31.8 µM (inactive) | 38.8 µM (inactive)
4 | CN1CCc2c3n(c4cc(Br)ccc24)[C@H](O)CCCC31 (stereo not given in full) | > 5.86 µM (inactive) | 1.87 µM (inactive) | 1.85 µM (inactive) | 3.61 µM (inactive) | 1.81 µM (inactive) | > 7.11 µM (inactive) | 2.38 µM (inactive) | 1.78 µM (inactive) | 2.13 µM (inactive) | > 10 µM (inactive) | 1.6 µM (inactive) | 2.67 µM (inactive) | > 9.31 µM (inactive) | 1.9 µM (inactive) | 1.72 µM (inactive) | > 10 µM (inactive) | 1.93 µM (inactive) | 1.96 µM (inactive) | > 10 µM (inactive) | 2.25 µM (inactive)
5 | OC1COC(n2c3ccc(Br)cc3c3ccc4c5ccccc5[nH]c4c32)C(O)C1O (stereo not given) | 2.61 µM (inactive) | 4.72 µM (inactive) | 3.48 µM (inactive) | 2.54 µM (inactive) | 3.15 µM (inactive) | 1.21 µM (inactive) | 1.56 µM (inactive) | 2.99 µM (inactive) | 2.14 µM (inactive) | 6.76 µM (inactive) | 2.58 µM (inactive) | 13.5 µM (inactive) | 3.84 µM (inactive) | 5.24 µM (inactive) | 1.13 µM (inactive) | 0.832 µM (active) | 3.67 µM (inactive) | 0.644 µM (active) | 5.21 µM (inactive) | 5.21 µM (inactive)
6 | O=C(c1ccc([N+](=O)[O-])cc1)C(Br)C(Br)c1ccnc2ccccc12 (stereo not given) | 8.28 µM (inactive) | 0.352 µM (active) | 2.8 µM (inactive) | 13.8 µM (inactive) | 2.9 µM (inactive) | 13.7 µM (inactive) | 1.91 µM (inactive) | 2.39 µM (inactive) | 13.1 µM (inactive) | 10.9 µM (inactive) | 4.5 µM (inactive) | 11.7 µM (inactive) | 13 µM (inactive) | 6.4 µM (inactive) | 11.1 µM (inactive) | 17.8 µM (inactive) | 2.24 µM (inactive) | 2.09 µM (inactive) | 5.96 µM (inactive) | 2.18 µM (inactive)
7 | CCCCCCCC(CC(=O)NC(CO)C(=O)NC(CO)CC(C)C)OC(=O)CC(CCCCCCC)OC(=O)CC(CCCCCCC)OC1OC(C)C(O)C(OC2OC(C)C(O)C(O)C2OC(C)=O)C1O (stereo not given) | 12.3 µM (inactive) | 3.15 µM (inactive) | 3 µM (inactive) | 10.2 µM (inactive) | 3.6 µM (inactive) | 10.9 µM (inactive) | 2.74 µM (inactive) | 10.5 µM (inactive) | 9.38 µM (inactive) | 20.5 µM (inactive) | 4.07 µM (inactive) | 5.64 µM (inactive) | 5.89 µM (inactive) | 11.1 µM (inactive) | 9.64 µM (inactive) | 16.6 µM (inactive) | 2.14 µM (inactive) | 8.75 µM (inactive) | 6.52 µM (inactive) | 2.99 µM (inactive)
